≈ marks a conversion by molar mass, not a printed value. Like-named read-outs stand apart in the source and are kept apart here.
What was measured:
[1] = test system: Clavibacter michiganensis subsp. michiganensis (field isolates KNOB16, KNOB23), tomato canker-causing bacteria; experiment: MIC by broth microdilution (investigation of measurement conditions); assay type: cell-based
[2] = test system: Ralstonia solanacearum (field isolates KNOB38, KNOB39), eggplant wilt-causing bacteria; experiment: microbe, parasite or virus in culture; assay type: cell-based
[3] = test system: field isolates listed in Table 6 (KNOB30 to KNOB110), bacteria pathogenic to crops; experiment: MIC of various amino acid-containing particles, HI medium; assay type: cell-based; conditions: 24 hours after addition
Experimental: (1) Freeze-stored 4 strains were seeded on heart infusion medium and PSA medium. (2) Seeded bacteria were cultured at 25° C. for 48 hours. (3) The antibacterial activity was assessed by measurement of the minimum inhibitory concentration (MIC) in accordance with a broth microdilution method. HI medium prepared without agar was used as a liquid medium. […] The above-described antibacterial agents were added to the liquid media at various concentrations, respectively, and the cultured bacteria described in (2) were inoculated thereto, followed by judgement of the results 24 hours and 48 hours after inoculation. The tests were repeated three times (n=3).
The antibacterial activity of nanoparticles containing Gly, Arg, Asp, or Ala produced above was examined. As test bacteria, field isolates listed in Table 6, tomato canker-causing bacteria standard strains (JCM1370, JCM1373), and kidney bean wilt-causing bacterium Curtobacterium flaccumfaciens pv. flaccumfaciens standard strain (JCM1347) were used.

[4] = test system: tomato canker-causing bacteria standard strains (JCM1370, JCM1373); assay type: cell-based, Clavibacter michiganensis subsp. michiganensis; conditions: 24 hours after addition
[5] = test system: Curtobacterium flaccumfaciens pv. flaccumfaciens standard strain (JCM1347), kidney bean wilt-causing bacterium; experiment: MIC of various amino acid-containing particles, HI medium; assay type: cell-based; conditions: 24 hours after addition
[6] = Clavibacter michiganensis, 24 h, KNOB16, HI medium, 24 H later
[7] = Clavibacter michiganensis, 24 h, KNOB16, PSA medium, 24 H later
[8] = Clavibacter michiganensis, 24 h, KNOB23, HI medium, 24 H later
[9] = Clavibacter michiganensis, 24 h, KNOB23, PSA medium, 24 H later
[10] = Clavibacter michiganensis, 48 h, KNOB16, HI medium, 48 H later
[11] = Clavibacter michiganensis, 48 h, KNOB16, PSA medium, 48 H later
[12] = Clavibacter michiganensis, 48 h, KNOB23, HI medium, 48 H later
[13] = Clavibacter michiganensis, 48 h, KNOB23, PSA medium, 48 H later
[14] = 24 h, KNOB30, HI medium, read-out: MIC
[15] = 24 h, KNOB33, HI medium, read-out: MIC
[16] = 24 h, KNOB67, HI medium, read-out: MIC
[17] = 24 h, KNOB75, HI medium, read-out: MIC
[18] = 24 h, KNOB105, HI medium, read-out: MIC
[19] = 24 h, KNOB106, HI medium, read-out: MIC
[20] = 24 h, KNOB108, HI medium, read-out: MIC
[21] = 24 h, KNOB110, HI medium, read-out: MIC
[22] = Curtobacterium flaccumfaciens, read-out: MIC

CCO [EtOH, ethanol]
MIC ([1]; KNOB16, HI medium, 24 H later): 15 µg/mL (≈ 326 µM)
MIC ([1]; KNOB16, HI medium, 48 H later): 30 µg/mL (≈ 651 µM)
MIC ([1]; KNOB16, PSA medium, 24 H later): 60 µg/mL (≈ 1300 µM)
MIC ([1]; KNOB16, PSA medium, 48 H later): 7.5 µg/mL (≈ 163 µM)
MIC ([1]; KNOB23, HI medium, 24 H later): 15 µg/mL (≈ 326 µM)
MIC ([1]; KNOB23, HI medium, 48 H later): 30 µg/mL (≈ 651 µM)
MIC ([1]; KNOB23, PSA medium, 24 H later): 7.5 µg/mL (≈ 163 µM)
MIC ([1]; KNOB23, PSA medium, 48 H later): 15 µg/mL (≈ 326 µM)
MIC ([2]; KNOB38, HI medium, 24 H later): 7.5 µg/mL (≈ 163 µM)
MIC ([2]; KNOB38, HI medium, 48 H later): 15 µg/mL (≈ 326 µM)
MIC ([2]; KNOB39, HI medium, 24 H later): 7.5 µg/mL (≈ 163 µM)
MIC ([2]; KNOB39, HI medium, 48 H later): 7.5 µg/mL (≈ 163 µM)
antibacterial activity against eggplant wilt-causing bacteria compared with KAS ([2]; comparison of MIC values of Table 5): stronger than KAS and nanoparticles
MIC ([3]; KNOB30, HI medium): 30 µg/mL
MIC ([3]; KNOB33, HI medium): 30 µg/mL
MIC ([3]; KNOB64, HI medium): 30 µg/mL
MIC ([3]; KNOB67, HI medium): 30 µg/mL
MIC ([3]; KNOB75, HI medium): 60 µg/mL
MIC ([3]; KNOB105, HI medium): 15 µg/mL
MIC ([3]; KNOB106, HI medium): 7.5 µg/mL
MIC ([3]; KNOB108, HI medium): 15 µg/mL
MIC ([3]; KNOB110, HI medium): 15 µg/mL
MIC ([4]; JCM1370, HI medium): 15 µg/mL (≈ 326 µM)
MIC ([4]; JCM1373, HI medium): 30 µg/mL (≈ 651 µM)
MIC [5]: 15 µg/mL

[H]/N=C(/N)N[C@H]1[C@H](O)[C@@H](O)[C@H](O[C@@H]2O[C@@H](C)[C@](O)(C=O)[C@H]2O[C@@H]2O[C@@H](CO)[C@H](O)[C@@H](O)[C@@H]2NC)[C@@H](N/C(N)=N\[H])[C@@H]1O [ST, streptomycin]
MIC [1, 6]: 2 µg/mL (≈ 3.44 µM)
MIC [1, 7]: 4 µg/mL (≈ 6.88 µM)
MIC [1, 8]: 1 µg/mL (≈ 1.72 µM)
MIC [1, 9]: 4 µg/mL (≈ 6.88 µM)
MIC [1, 10]: 2 µg/mL (≈ 3.44 µM)
MIC [1, 11]: 8 µg/mL (≈ 13.8 µM)
MIC [1, 12]: 1 µg/mL (≈ 1.72 µM)
MIC [1, 13]: 4 µg/mL (≈ 6.88 µM)
MIC ([2]; KNOB39, HI medium, 24 H later): 8 µg/mL (≈ 13.8 µM)
MIC ([2]; KNOB39, HI medium, 48 H later): 8 µg/mL (≈ 13.8 µM)
MIC ([2]; Ralstonia solanacearum, 24 h): 8 µg/mL (≈ 13.8 µM)
MIC ([2]; Ralstonia solanacearum, 48 h): 8 µg/mL (≈ 13.8 µM)
MIC [3, 14]: 1.56 µg/mL
MIC [3, 15]: 0.78 µg/mL
MIC ([3]; 24 h, KNOB64, HI medium): 1.56 µg/mL
MIC [3, 16]: 1.56 µg/mL
MIC [3, 17]: 1.56 µg/mL
MIC [3, 18]: 1.56 µg/mL
MIC [3, 19]: 1.56 µg/mL
MIC [3, 20]: 1.56 µg/mL
MIC [3, 21]: 1.56 µg/mL
MIC ([4]; JCM1370, HI medium): 3.9 µg/mL (≈ 6.71 µM)
MIC ([4]; JCM1373, HI medium): 7.8 µg/mL (≈ 13.4 µM)
MIC [5, 22]: 0.39 µg/mL

C[C@H]1O[C@H](O[C@H]2[C@H](O)[C@@H](O)[C@@H](O)[C@H](O)[C@@H]2O)[C@@H](N)C[C@@H]1NC(=N)C(=O)O [KAS, kasugamycin]
MIC ([1]; KNOB16, HI medium, 24 H later): 32 µg/mL (≈ 84.4 µM)
MIC ([1]; KNOB16, HI medium, 48 H later): 32 µg/mL (≈ 84.4 µM)
MIC ([1]; KNOB16, PSA medium, 24 H later): 16 µg/mL (≈ 42.2 µM)
MIC ([1]; KNOB16, PSA medium, 48 H later): 16 µg/mL (≈ 42.2 µM)
MIC ([1]; KNOB23, HI medium, 24 H later): 32 µg/mL (≈ 84.4 µM)
MIC ([1]; KNOB23, HI medium, 48 H later): 32 µg/mL (≈ 84.4 µM)
MIC ([1]; KNOB23, PSA medium, 24 H later): 16 µg/mL (≈ 42.2 µM)
MIC ([1]; KNOB23, PSA medium, 48 H later): 32 µg/mL (≈ 84.4 µM)
MIC ([2]; KNOB38, HI medium, 24 H later): 8 µg/mL (≈ 21.1 µM)
MIC ([2]; KNOB38, HI medium, 48 H later): 16 µg/mL (≈ 42.2 µM)
MIC ([2]; KNOB39, HI medium, 24 H later): 8 µg/mL (≈ 21.1 µM)
MIC ([2]; KNOB39, HI medium, 48 H later): 16 µg/mL (≈ 42.2 µM)
MIC ([3]; KNOB30, HI medium): 32 µg/mL
MIC ([3]; KNOB33, HI medium): 64 µg/mL
MIC ([3]; KNOB64, HI medium): 64 µg/mL
MIC ([3]; KNOB67, HI medium): 64 µg/mL
MIC ([3]; KNOB75, HI medium): 64 µg/mL
MIC ([3]; KNOB105, HI medium): 32 µg/mL
MIC ([3]; KNOB106, HI medium): 32 µg/mL
MIC ([3]; KNOB108, HI medium): 32 µg/mL
MIC ([3]; KNOB110, HI medium): 32 µg/mL
MIC ([4]; JCM1370, HI medium): 128 µg/mL (≈ 337 µM)
MIC ([4]; JCM1373, HI medium): 64 µg/mL (≈ 169 µM)
MIC [5]: 128 µg/mL

CC1(C)S[C@@H]2[C@H](NC(=O)[C@H](N)c3ccccc3)C(=O)N2[C@H]1C(=O)O [ABPC, ampicillin]
MIC [1, 6]: 0.25 µg/mL (≈ 0.715 µM)
MIC [1, 7]: 0.5 µg/mL (≈ 1.43 µM)
MIC [1, 8]: 0.25 µg/mL (≈ 0.715 µM)
MIC [1, 9]: 0.5 µg/mL (≈ 1.43 µM)
MIC [1, 10]: 0.25 µg/mL (≈ 0.715 µM)
MIC [1, 11]: 1 µg/mL (≈ 2.86 µM)
MIC [1, 12]: 0.25 µg/mL (≈ 0.715 µM)
MIC [1, 13]: 0.5 µg/mL (≈ 1.43 µM)
MIC ([2]; KNOB39, HI medium, 24 H later): 0.5 µg/mL (≈ 1.43 µM)
MIC ([2]; KNOB39, HI medium, 48 H later): 0.5 µg/mL (≈ 1.43 µM)
MIC ([2]; Ralstonia solanacearum, 24 h): 0.5 µg/mL (≈ 1.43 µM)
MIC ([2]; Ralstonia solanacearum, 48 h): 0.5 µg/mL (≈ 1.43 µM)
MIC [3, 14]: 0.5 µg/mL
MIC [3, 15]: < 0.25 µg/mL
MIC ([3]; 24 h, KNOB64, HI medium): < 0.25 µg/mL
MIC [3, 16]: < 0.25 µg/mL
MIC [3, 17]: 0.5 µg/mL
MIC [3, 18]: < 0.25 µg/mL
MIC [3, 19]: < 0.25 µg/mL
MIC [3, 20]: 0.5 µg/mL
MIC [3, 21]: < 0.25 µg/mL
MIC ([4]; JCM1370, HI medium): 0.5 µg/mL (≈ 1.43 µM)
MIC ([4]; JCM1373, HI medium): 1 µg/mL (≈ 2.86 µM)
MIC [5, 22]: 2 µg/mL
